Experiment: 3,4,3-LI(1,2-HOPO)-excipient compatibility study (visual observation, HPLC purity and impurities on storage)
Format: physicochemical
Details: for 3L1O Purity / Total Impurities: n = 1
Description: The objective of the analytical study described in this report was to evaluate the interactions between 3,4,3-L1(1,2-HOPO) and selected pharmaceutical excipients under 25° C./60% RH and 40° C./75% RH conditions over eight weeks. Physical appearance and potency of the different samples were assessed at T=0, 2, 4, and 8 weeks through visual observations and high performance liquid chromatography (HPLC) analysis.
The stability of 3,4,3-L1(1,2-HOPO) was tested according to the conditions listed below in TABLE 1.1. A11 test samples were stored throughout the study in 40 mL clear USP Type 1 glass vials (28 mm OD×95 mm height; 24 mm screw cap), wrapped in aluminum foil.
• Test Samples: Each test mixture was prepared by weighing the desired quantity of 3,4,3-L1(1,2-HOPO) and excipient (both screened through sieve #40) into vials. Both ingredients were first mixed using a clean glass rod and then vortexed. At each time interval, one vial was withdrawn from each drug-excipient series along with the corresponding placebo preparation and tested as described below.
b. Sample Characterization • Visual Observation: For each sample solution, visual observation consisted in recording color and physical form.
c. Chromatographic Assay and Purity Assessment • Standard Stock Solutions: For each standard stock solutions, the test article was weighed (200 mg) and dissolved by sonication into 30 mL of diluent (water:acetonitrile=90%:10%). After equilibration at room temperature, the volume of the standard solution was adjusted to 50 mL. Standard stock solutions were prepared in duplicates, working standard solutions were prepared by dilution of each stock with the diluent to the desired concentrations. • Calibration Standards: With each experiment, 5 calibration standard solutions at different concentrations were prepared from stock solutions using the diluent. Concentrations of the calibration standards were between 1.6 and 2.4 mg/mL. […] The vials were then mechanically shaken for 15 minutes, followed by centrifugation of the sample solutions (10,000 rpm, 10 min), and the supernatants were used for the assay. • Placebo Preparation: 25 mL of diluent was added to each of the placebo vial. The vials were then mechanically shaken for 15 minutes, followed by centrifugation of the sample solutions (10,000 rpm, 10 min), and the supernatants were used for the assay. Analytical Method: Instrument: Waters Alliance 2695 liquid chromatography system Column: Agilent, Eclipse XDB-C18, 4.6×150 mm, 5 μm. Mobile Phase A: 0.05% formic acid in 95% H2O: 5% ACN Mobile Phase B: 0.05% formic acid in acetonitrile (ACN)
Column Temperature: 25° C. Flow Rate: 1.0 mL/min. Injection Volume: 10 μL Detection: 250 nm Run Time: 50 min Diluent: 9:1 H2O:ACN Analysis Sequence:
• Suitability Requirements: There should be no interference from the diluent/blank at the retention times of 3,4,3-L1(1,2-HOPO) peaks. The relative standard deviation (% RSD) for five replicate system suitability injections should be below 2.0%. The response factor of the second standard should be within 95-105%. The correlation coefficient (R2) of the system linearity standards should be higher than 0.990. 5. Results

**Q.** Which “Unknown Impurity RRT 1.27” value (40° C./75% RH, 2 Weeks) does the source give for O=C(NCCCN(CCCCN(CCCNC(=O)c1cccc(=O)n1O)C(=O)c1cccc(=O)n1O)C(=O)c1cccc(=O)n1O)c1cccc(=O)n1O [3,4,3-L1(1,2-HOPO)] here?
**A.** 0.36 % w/w

**Q.** And the “Unknown Impurity RRT 1.3” value (40° C./75% RH, 2 Weeks)?
**A.** 0.16 % w/w

**Q.** What about the “Unknown Impurity RRT 1.39” value (40° C./75% RH, 2 Weeks) of the same compound?
**A.** 0.05 % w/w

**Q.** And the “Unknown Impurity RRT 1.41” value (40° C./75% RH, 2 Weeks)?
**A.** 0.01 % w/w

**Q.** And the “Unknown Impurity RRT 1.46” value (40° C./75% RH, 2 Weeks)?
**A.** 0.07 % w/w

**Q.** What about the “Unknown Impurity RRT 2.31” value (40° C./75% RH, 2 Weeks) of the same compound?
**A.** 0.05 % w/w

**Q.** And the “Unknown Impurity RRT 2.59” value (40° C./75% RH, 2 Weeks)?
**A.** 0.04 % w/w

**Q.** And the “Unknown Impurity RRT 2.8” value (40° C./75% RH, 2 Weeks)?
**A.** 0.03 % w/w

**Q.** What about the “3L1O Purity” value (40° C./75% RH, 2 Weeks) of the same compound?
**A.** 98.62 % Area

**Q.** And the “Total Impurities” value (40° C./75% RH, 2 Weeks)?
**A.** 1.38 % Area

**Q.** And the “Unknown Impurity RRT 0.24” value (40° C./75% RH, 4 weeks)?
**A.** 0.05 % w/w

**Q.** What about the “Unknown Impurity RRT 0.58” value (40° C./75% RH, 4 weeks) of the same compound?
**A.** 0.09 % w/w

**Q.** And the “Unknown Impurity RRT 0.6” value (40° C./75% RH, 4 weeks)?
**A.** 0.06 % w/w

**Q.** And the “Unknown Impurity RRT 0.62” value (40° C./75% RH, 4 weeks)?
**A.** 0.07 % w/w

**Q.** What about the “Unknown Impurity RRT 0.81” value (40° C./75% RH, 4 weeks) of the same compound?
**A.** 0.02 % w/w

**Q.** And the “Unknown Impurity RRT 0.87” value (40° C./75% RH, 4 weeks)?
**A.** 0.16 % w/w

**Q.** And the “Unknown Impurity RRT 0.89” value (40° C./75% RH, 4 weeks)?
**A.** 0.03 % w/w

**Q.** And the “Unknown Impurity RRT 1.02” value (40° C./75% RH, 4 weeks)?
**A.** 0.03 % w/w

**Q.** What about the “Unknown Impurity RRT 1.11” value (40° C./75% RH, 4 weeks) of the same compound?
**A.** 0.06 % w/w

**Q.** And the “Unknown Impurity RRT 1.27” value (40° C./75% RH, 4 weeks)?
**A.** 0.26 % w/w

**Q.** And the “Unknown Impurity RRT 1.3” value (40° C./75% RH, 4 weeks)?
**A.** 0.2 % w/w

**Q.** What about the “Unknown Impurity RRT 1.39” value (40° C./75% RH, 4 weeks) of the same compound?
**A.** 0.74 % w/w

**Q.** What about the “Unknown Impurity RRT 1.41” value (40° C./75% RH, 4 weeks) of the same compound?
**A.** 0.01 % w/w

**Q.** And the “Unknown Impurity RRT 1.46” value (40° C./75% RH, 4 weeks)?
**A.** 0.08 % w/w

**Q.** And the “Unknown Impurity RRT 1.72” value (40° C./75% RH, 4 weeks)?
**A.** 0.09 % w/w

**Q.** What about the “Unknown Impurity RRT 2.3” value (40° C./75% RH, 4 weeks) of the same compound?
**A.** 0.04 % w/w

**Q.** And the “Unknown Impurity RRT 2.59” value (40° C./75% RH, 4 weeks)?
**A.** 0.03 % w/w

**Q.** And the “Unknown Impurity RRT 2.79” value (40° C./75% RH, 4 weeks)?
**A.** 0.02 % w/w

**Q.** And the “3L1O Purity” value (40° C./75% RH, 4 weeks)?
**A.** 98.63 % Area

**Q.** What about the “Total Impurities” value (40° C./75% RH, 4 weeks) of the same compound?
**A.** 1.37 % Area

**Q.** And the “Unknown Impurity RRT 0.24” value (40° C./75% RH, 8 Weeks)?
**A.** 0.34 % w/w

**Q.** And the “Unknown Impurity RRT 0.58” value (40° C./75% RH, 8 Weeks)?
**A.** 0.2 % w/w

**Q.** And the “Unknown Impurity RRT 0.59” value (40° C./75% RH, 8 Weeks)?
**A.** 0.16 % w/w

**Q.** And the “Unknown Impurity RRT 0.62” value (40° C./75% RH, 8 Weeks)?
**A.** 0.18 % w/w

**Q.** What about the “Unknown Impurity RRT 0.81” value (40° C./75% RH, 8 Weeks) of the same compound?
**A.** 0.05 % w/w

**Q.** And the “Unknown Impurity RRT 0.87” value (40° C./75% RH, 8 Weeks)?
**A.** 0.18 % w/w

**Q.** And the “Unknown Impurity RRT 0.89” value (40° C./75% RH, 8 Weeks)?
**A.** 0.32 % w/w

**Q.** What about the “Unknown Impurity RRT 0.91” value (40° C./75% RH, 8 Weeks) of the same compound?
**A.** 0.11 % w/w

**Q.** And the “Unknown Impurity RRT 0.95” value (40° C./75% RH, 8 Weeks)?
**A.** 0.04 % w/w

**Q.** And the “Unknown Impurity RRT 1.02” value (40° C./75% RH, 8 Weeks)?
**A.** 0.09 % w/w

**Q.** And the “Unknown Impurity RRT 1.12” value (40° C./75% RH, 8 Weeks)?
**A.** 0.05 % w/w

**Q.** And the “Unknown Impurity RRT 1.27” value (40° C./75% RH, 8 Weeks)?
**A.** 0.4 % w/w

**Q.** What about the “Unknown Impurity RRT 1.31” value (40° C./75% RH, 8 Weeks) of the same compound?
**A.** 0.01 % w/w

**Q.** What about the “Unknown Impurity RRT 1.39” value (40° C./75% RH, 8 Weeks) of the same compound?
**A.** 0.08 % w/w

**Q.** And the “Unknown Impurity RRT 1.41” value (40° C./75% RH, 8 Weeks)?
**A.** 0 % w/w

**Q.** What about the “Unknown Impurity RRT 1.46” value (40° C./75% RH, 8 Weeks) of the same compound?
**A.** 0.12 % w/w

**Q.** And the “Unknown Impurity RRT 1.72” value (40° C./75% RH, 8 Weeks)?
**A.** 0.1 % w/w

**Q.** What about the “Unknown Impurity RRT 2.31” value (40° C./75% RH, 8 Weeks) of the same compound?
**A.** 0.03 % w/w

**Q.** What about the “Unknown Impurity RRT 2.6” value (40° C./75% RH, 8 Weeks) of the same compound?
**A.** 0.02 % w/w

**Q.** What about the “Unknown Impurity RRT 2.8” value (40° C./75% RH, 8 Weeks) of the same compound?
**A.** 0.02 % w/w

**Q.** And the “3L1O Purity” value (40° C./75% RH, 8 Weeks)?
**A.** 97.49 % Area

**Q.** What about the “Total Impurities” value (40° C./75% RH, 8 Weeks) of the same compound?
**A.** 2.51 % Area

**Q.** And the “Unknown Impurity RRT 0.58” value (Initial (T = 0))?
**A.** 0.05 % w/w

**Q.** What about the “Unknown Impurity RRT 0.59” value (Initial (T = 0)) of the same compound?
**A.** 0.04 % w/w

**Q.** And the “Unknown Impurity RRT 0.62” value (Initial (T = 0))?
**A.** 0.04 % w/w

**Q.** What about the “Unknown Impurity RRT 0.87” value (Initial (T = 0)) of the same compound?
**A.** 0.1 % w/w

**Q.** And the “Unknown Impurity RRT 0.89” value (Initial (T = 0))?
**A.** 0.02 % w/w

**Q.** And the “Unknown Impurity RRT 1.03” value (Initial (T = 0))?
**A.** 0.21 % w/w

**Q.** And the “Unknown Impurity RRT 1.11” value (Initial (T = 0))?
**A.** 0.04 % w/w

**Q.** What about the “Unknown Impurity RRT 1.27” value (Initial (T = 0)) of the same compound?
**A.** 0.29 % w/w

**Q.** And the “Unknown Impurity RRT 1.3” value (Initial (T = 0))?
**A.** 0.21 % w/w

**Q.** What about the “Unknown Impurity RRT 1.39” value (Initial (T = 0)) of the same compound?
**A.** 0.09 % w/w

**Q.** What about the “Unknown Impurity RRT 1.41” value (Initial (T = 0)) of the same compound?
**A.** 0.01 % w/w

**Q.** And the “Unknown Impurity RRT 1.46” value (Initial (T = 0))?
**A.** 0.11 % w/w

**Q.** What about the “Unknown Impurity RRT 2.31” value (Initial (T = 0)) of the same compound?
**A.** 0.05 % w/w

**Q.** What about the “3L1O Purity” value (Initial (T = 0)) of the same compound?
**A.** 98.73 % Area

**Q.** What about the “Total Impurities” value (Initial (T = 0)) of the same compound?
**A.** 1.27 % Area
